Experimental data: patent US20210198318A1, “Methods and Compositions for Treating Diseases and Conditions Associated with Gonadotropin Releasing Hormone Receptor” (The Board of Regents of the University of Oklahoma, priority 2018, published 2021)
Non-standard residues stand in square brackets, D forms with d. Residues, ends and D or L forms follow the SMILES beside them. dPhe(4-Cl) = N[C@H](Cc1ccc(Cl)cc1)C(=O)O; d2Nal = N[C@H](Cc1ccc2ccccc2c1)C(=O)O; dCit = NC(=O)NCCC[C@@H](N)C(=O)O; d3Pal = N[C@H](Cc1cccnc1)C(=O)O

Experiments:
GnRHR = target: T1, GnRHR (Homo sapiens, UniProt P30968); test: GnRHR-transfected Chem-1 cell-based calcium flux assay; conditions: for dosage at which the assay responds (relative Ca^2+ induced Fluo-8 NW fluorescence, % of maximal fluorescence): GnRHR-transfected cells, dosage response curve, n=4
T1 construct: host or cells: Chem-1 cells
T1 sequence (P30968 1-328): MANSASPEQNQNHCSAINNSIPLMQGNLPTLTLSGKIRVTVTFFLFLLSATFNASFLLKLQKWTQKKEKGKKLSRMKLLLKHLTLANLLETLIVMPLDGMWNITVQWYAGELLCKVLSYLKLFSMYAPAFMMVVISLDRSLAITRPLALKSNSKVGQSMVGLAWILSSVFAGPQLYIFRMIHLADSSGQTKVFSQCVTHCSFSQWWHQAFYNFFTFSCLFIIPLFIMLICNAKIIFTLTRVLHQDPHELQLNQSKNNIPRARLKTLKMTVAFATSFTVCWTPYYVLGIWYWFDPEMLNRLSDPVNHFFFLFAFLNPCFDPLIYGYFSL
Protocol: Cell-based GnRHR-AAb Activity Assays: Activity of GnRHR AAb in IgG purified from sera of subjects with PCOS and controls were analyzed with a GnRHR-transfected Chem-1 cell-based calcium flux assay (Eurofins Scientific, USA). Briefly, Chem-1 cells were dispensed into 96-well plates and incubated 24 h, after which assay plates were washed sufficiently with Hank's Balanced Salt Solution (HBSS) supplemented with 20 mM HEPES, 2.5 mM Probenecid at pH 7.4 to remove all trace of Media. Component. Serum-derived IgG (0.1 mg/mL) was added in the presence and absence of the non-selective GnRHR blockade. Samples were tested in triplicate. FLUO-8®, AM Ca^2+ dye (Cat No: 21080, AAT Bioquest, Inc., Sunnyvale, Calif.) was prepared by dissolving 1 mg of Fluo-8 NW in […] and applied to the assay plate (Ca^2+ dye at 10 μL/10 mL is sufficient for loading one plate). Excitation wave length was set at 470-495 nm and emission wave length at 515-565 nm for Ca^2+ dyes. Maximal fluorescence signal was obtained by HIDEX Sense reader.
Methods Summary: Infertile PCOS subjects based on Rotterdam criteria and infertile ovulatory controls seen at an academic fertility clinic 2012-2016 were included in the study if they had stored serum prior to beginning treatment. Serum was screened by ELISA for AAbs to GnRHR using a synthetic 28-mer peptide from the ECL2 and ECL 1 of human GnRHR as coating antigen. Optical density (OD) values were read at 405 nm at 60 minutes. Activity of GnRHR AAb in sera and in IgG purified from sera of 4 subjects with PCOS and 4 controls was analyzed with a GnRHR-transfected Chem-1 cell-based calcium flux assay. AAb-specific effect was tested by GnRHR blockade. Group data are presented as mean±SD or percent. Groups were compared using Student t or Pearson chi-squared tests. An ROC curve was used to assess OD as a diagnostic test for PCOS.

Abs present in the sera = test: Mimotope PIN ELISA with sequential GnRHR-ECL2 synthetic peptides and PCOS serum; format: binding, human; conditions: sera 1:200; 8-mer pins offset by two amino acids
Protocol: The peaks represent sites of increased binding by Abs present in the sera. The amino acid sequence for each pin is shown at the bottom. Representative PCOS with 2 dominant peaks. Each color bar represents the time of O.D. reading after addition of chromagen (30, 60, and 90 min).
A Mimotope PIN ELISA assay was performed on 11 PCOS subjects and 5 control subjects using sequential GnRHR-ECL2 synthetic peptides, each 8 amino acid residues in length, and each one different from the preceding peptide by addition of the next two C-terminal residues and removal of the last 2 N-terminal residues (see Table 1). The specific peptides were biochemically bonded to the tip of the pin that is attached to the 96 well plate cover in such a fashion that the peptides were immersed in the buffer/sera (1:200) mixture in the well. After incubation, the pins and wells were washed thoroughly, and the well mixture was then replaced by the anti-human-2nd AB (1:10,000) and incubated and washed again; the colorimetric agent was then added. The wells were sequentially counted at 10 min intervals, and values were compared for analysis of O.D. for each pin. The values and pin sequences are shown with time of reading in color code.

Compound | dosage at which the assay responds (relative Ca^2+ induced Fluo-8 NW fluorescence, % of maximal fluorescence) (GnRHR) | site of increased binding by Abs in PCOS sera (minipin ELISA peak) (Abs present in the sera) | also measured
CC(=O)N[C@H](Cc1ccc2ccccc2c1)C(=O)N[C@H](Cc1ccc(Cl)cc1)C(=O)N[C@H](Cc1cccnc1)C(=O)N[C@@H](CO)C(=O)N[C@@H](Cc1ccc(O)cc1)C(=O)N[C@H](CCCNC(N)=O)C(=O)N[C@@H](CC(C)C)C(=O)N[C@@H](CCCNC(=N)N)C(=O)N1CCC[C@H]1C(=O)N[C@H](C)C(N)=O [cetrorelix] (Ac-[d2Nal][dPhe(4-Cl)][d3Pal]SY[dCit]LRP[dA]-NH2) | – | – | effect on GnRHR activity (relative fluorescence, % of maximum fluorescence) of PCOS subjects (GnRHR; cetrorelix 10^−5M, 2-hour exposure, samples from PCOS subjects): suppressed the relative fluorescence expressed as % of maximum fluorescence to baseline; effect on GnRHR activity (relative fluorescence, % of maximum fluorescence) of control subjects (GnRHR; cetrorelix 10^−5M, 2-hour exposure, samples from control subjects): not significantly changed
CCNC(=O)[C@@H]1CCCN1C(=O)[C@H](CCCNC(=N)N)NC(=O)[C@H](CC(C)C)NC(=O)[C@@H](CC(C)C)NC(=O)[C@H](Cc1ccc(O)cc1)NC(=O)[C@H](CO)NC(=O)[C@H](Cc1c[nH]c2ccccc12)NC(=O)[C@H](Cc1c[nH]cn1)NC(=O)[C@@H]1CCC(=O)N1 [leuprolide] | 10^−8 M | – | total GnRHR activity of leuprolide in the presence of IgG purified from PCOS subjects versus buffer+leuprolide (GnRHR; GnRHR transfected cells, n=4, p<0.01): increased the total activity at least in an additive fashion
FSQCVTHC (listed as Homo sapiens) [SEQ ID NO:8] | – | Overlapping Peak 1 | –
VTHCSFSQ (listed as Homo sapiens) [SEQ ID NO:6] | – | Overlapping Peak 2 | –
human Leutenizing Hormone Releasing Hormone [hLHRH] | 10^−9 M | – | –
